The source of these data is US4632978A, “6-serine, des-19-leucine calcitonin” (Armour Pharmaceutical Corp., priority 1985, dated 1986).

Bridge positions count the residues as written; N and C are the ends. Ends that are not written are not given here.

The test system of test [1] is serum calcium concentration. In words: Biological assay of calcitonin analogs in vivo: reduction of serum calcium concentration, 2×2 parallel line assay against synthetic salmon calcitonin standard. To be noted: rats, subcutaneous injection, blood withdrawn 1 hour later, vs synthetic salmon calcitonin standard. The method, then: Biological Assay Of Calcitonin Analogs In Vivo
The biological potency of Ser^6, des-Leu^19 -salmon calcitonin was determined by comparing the reduction of serum calcium concentration which followed administration by graded doses of Ser^6, des-Leu^19 SCT and synthetic salmon calcitonin standard. Rats were divided into four groups of seven animals, and each group was assigned at random to a dose of standard or test solution. Low and high doses where chosen from the linear portion of the dose-response curve. For the salmon calcitonin standard, the values were 0.7 and 2.1 ng. peptide/100 g. body weight (BW). This dose approximates 3 and 9 MU/100 g. BW. Peptides were given by subcutaneous injection (0.2 ml/100 g. BW) and blood was withdrawn 1 hour later for serum calcium determination. Sera are processed and analyzed within two hours of collection. […]. Results were analyzed by a 2×2 parallel line assay [Gaddum, J. H., J. Pharm. Pharmacol., 5, 345 (1953)]. The standard salmon calcitonin used was independently determined to contain greater than 4,000 IU/mg. Ser^6,des-Leu^19 -SCT assayed at 8400 IU/mg.

For test [2] the following is noted: literature values, Monikawa et al.; cited from earlier work.

Turning to “6-serine, des-19-leucine-salmon calcitonin [Ser^6,des-Leu^19 -SCT]”, the “biological potency (reduction of serum calcium concentration)” value in test [1] is listed as 8400 IU/mg.

On to “(1,7-α-L-aminosuberic acid)eel calcitonin”, for which the hypocalcemic potency result in test [2] is listed as “about 3400 IU/mg”. For “eel calcitonin (CSNLSTCVLGKLSQELHKLQTYPRTDVGAGTP-NH2; disulfide 1-7; ends not checked; UniProt P01262 1-32, looked up) [synthetic eel calcitonin, synthetic eel calcitonin from Monikawa et al]”, the hypocalcemic potency result in test [2] was “around 4300 IU/mg”.
